The source of these data is US10718029B2, “Treatment targeting oncology and neurodegeneration” (priority 2008, dated 2020).

The subject of assay [1] is TGF Béta. As to conditions: publication of Lecanda and Gold, March 2009; cited from earlier work.
The test system of assay [2] is PKCzeta (PKCζ). The experiment in a line: Western blotting of PKCzeta expression (internal control) under TPA treatment. The format is cell-based, human. The text has this: (§1) Western blotting study: Given that the protein sequence of LIV21 has putative PKCε phosphorylation sites, including two specific for PKCε, the inventor tested the variation in the expression of this PKC as a function of the duration of TPA treatment. […] The expression of PKCzeta (PKCζ) is used as an internal control since it is not sensitive to TPA.
(In western blotting, separated proteins are transferred to a membrane and probed.)

In assay [3] the test system is p130. The experiment in a line: Fluorescence localization of p130 in nuclei during TPA treatment. The assay is classed as cell-based, human. Conditions: TPA 25 nM, after 12 h. The method, then:
(§2) During this TPA treatment (25 nM), when E2F4, p130 and LIV21 were studied (green fluorescence) in the nuclei labelled (DNA) with propidium iodide (red fluorescence), the following were observed: […]

Assay [4] deals with LIV21. Nature of the assay: Fluorescence localization of LIV21 in nuclei during TPA treatment. The assay is classed as cell-based, human. As to conditions: TPA 25 nM, after 12 h. The method, then: as §2
In assay [5] the test system is protein kinases C (PKCs). As to conditions: MCF-7 cells, background statement; cited from earlier work.
Assay [6] relates to E2F4. The experiment in a line: Fluorescence localization of E2F4 in nuclei during TPA treatment. The assay is classed as cell-based, human. Conditions: TPA 25 nM. The method, then:
as §2

Assay [7] concerns estrogen receptors (ERs). As to conditions: MCF-7 cells, background statement; cited from earlier work.
The test system of assay [8] is LIV21. Nature of the assay: Cell fractionation, LIV21 expression profile in cytoplasm and nuclear fraction. As to conditions: cultures treated with peptide at 2 μM compared with TPA-treated cultures. The format is cell-based, human. An excerpt: The study of the specific role of the PKC epsilon on the nuclear translocation of Liv 21F can use a peptide which inhibits function PKC epsilon and the translocation like previously described but also according to the protocol of reference of Si RNA of PKC epsilon. The profile of expression observed corresponds to a doublet of tapes in the cytoplasm with approximately 51 KD (and with a tape of 64 kD according to the siRNA used) whereas it corresponds only to one simple tape with 50 kD in the nuclear fraction.

Assay [9] concerns the target T1, PKCε (Homo sapiens, UniProt Q02156).
T1 construct: endogenous in cells; host or cells: MCF-7
T1 sequence (Q02156 1-737): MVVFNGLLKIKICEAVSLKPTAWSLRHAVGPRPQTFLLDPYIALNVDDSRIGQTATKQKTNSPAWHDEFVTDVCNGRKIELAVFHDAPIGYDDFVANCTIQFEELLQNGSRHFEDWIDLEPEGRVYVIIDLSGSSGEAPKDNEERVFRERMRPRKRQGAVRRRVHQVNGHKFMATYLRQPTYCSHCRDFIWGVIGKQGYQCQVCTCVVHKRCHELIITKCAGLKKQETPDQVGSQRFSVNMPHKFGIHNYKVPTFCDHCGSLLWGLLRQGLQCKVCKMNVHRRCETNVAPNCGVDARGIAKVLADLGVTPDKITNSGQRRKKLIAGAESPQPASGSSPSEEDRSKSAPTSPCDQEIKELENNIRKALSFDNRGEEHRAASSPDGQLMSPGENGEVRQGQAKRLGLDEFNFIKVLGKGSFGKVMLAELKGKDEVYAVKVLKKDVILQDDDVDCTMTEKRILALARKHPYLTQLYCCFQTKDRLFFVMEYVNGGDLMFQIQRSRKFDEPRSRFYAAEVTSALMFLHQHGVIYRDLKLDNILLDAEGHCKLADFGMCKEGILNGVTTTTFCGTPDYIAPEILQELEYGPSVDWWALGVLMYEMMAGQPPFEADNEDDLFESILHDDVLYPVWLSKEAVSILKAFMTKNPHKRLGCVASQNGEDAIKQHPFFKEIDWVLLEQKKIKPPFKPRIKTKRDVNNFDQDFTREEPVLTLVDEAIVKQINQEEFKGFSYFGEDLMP
Nature of the assay: Western blotting of PKCε expression as a function of the duration of TPA treatment. Conditions: MCF-7 cells. The format is cell-based.
Text: as §1

The test system of assay [10] is normal breast cells. As to conditions: background statement; cited from earlier work.
Assay [11] has as its system MCF-7 line. As to conditions: cited from earlier work.
Assay [12] relates to cells of benign tumors. As to conditions: background statement; cited from earlier work.
The subject of assay [13] is MCF-7 cells. As to conditions: background statement; cited from earlier work.
The subject of assay [14] is LIV21. As to conditions: TPA-treated MCF-7 lines; cited from earlier work.
In assay [15] the target is T2, PKC (Homo sapiens, UniProt Q02156).
T2 construct: endogenous in cells; host or cells: MCF-7
T2 sequence (Q02156 1-737): T1 sequence (Q02156 1-737)
Conditions: PKC-specific inhibitory peptide; cited from earlier work.

Assay [16] has as its system LIV21. Nature of the assay: Immunocytochemistry of the nuclear translocation of LIV21. The assay is classed as cell-based, human. Conditions: peptide 2 μM, 12 h, compared with TPA 25 nM. The text has this: To determine the specific action of PKCε on the translocation of LIV21, the crops were discussed with a peptide, selective antagonist of the function and translocation of this PKC (EAVSLKPT (SEQ ID No 6), and the results were compared with those obtained by processing with TP A. This peptide is recognized by the enzyme and links themselves as a substrate amended to the level of its catalytic site. Not phosphorylable, he acts as a specific inhibitor of the activity of PKCε.
The effect of the selective inhibition of the activity of PKCε on the nuclear translocation of LIV21 was studied by immunocytochemistry.

Like-named read-outs stand apart in the source and are kept apart here.

For `Fc1ccc(Cl)cc1-c1nc(Nc2ccncc2)c2nccnc2n1` [SD208], in [1], the “TGF Béta events (increase and nuclear accumulation of p27 via smad 2 and smad 3)” value is reported as “All these events are locked”.
`CCCCCCCCCCCCCC(=O)O[C@@H]1[C@@H](C)[C@@]2(O)[C@@H](C=C(CO)C[C@]3(O)C(=O)C(C)=C[C@@H]23)[C@H]2C(C)(C)[C@]12OC(C)=O` [TPA, 12-0-tetradecanoyl phorbol-13-10 sumoate]: the “expression of PKCzeta (PKCζ)” value in assay [2] is “not sensitive”. For the same compound, the p130 localization entry in assay [3] is “intranuclear green fluorescence signals”. Further, the figures for the LIV21 localization result in [4] and in assay [14] were “intranuclear green fluorescence signals” and “translocated into the nucleus”, respectively. In [5], the “translocation of protein kinases C (PKCs) from the cytosol to the membranes” value is “induces the time- and dose-dependent translocation”. Moreover, the E2F4 localization result in assay [6] (after 12 h) is reported as “intranuclear green fluorescence signals”; in assay [6] (after 48 h) it was “comparable localization”; in assay [6] (at 72 h), “disappears from the nucleus”. Besides, in assay [7], the “expression and function of estrogen receptors (ERs)” value was “greatly and rapidly inhibits”. Moreover, the LIV21 expression profile entry in assay [8] is “doublet in the cytoplasm and of a single band in the nuclear fraction”. In addition, in assay [9], the PKCε expression result is recorded as “decreases from 30 min”. Besides, the “growth of normal breast cells” value in assay [10] is reported as “activates the growth”. The cancerous proliferation result in assay [11] (TPA-treated MCF-7 lines) is reported as “inhibition of cancerous proliferation”. Moreover, in assay [11] (TPA-treated MCF-7 lines), the cell differentiation result was “cell differentiation”. Also, the “proliferation of the cells of human mammary tumor lines such as the MCF-7 line” value in assay [11] (background statement) is recorded as “drastically inhibits the proliferation”. Besides, in [12], the “proliferation of the cells of benign tumors” value is “does not modify the proliferation”. Also, in [13], the “migratory capacity of MCF-7 cells in vitro” value is recorded as “increases the migratory capacity”.
In the case of EAVSLKPT [PKC inhibiting peptide], the “PKC activity versus expression” value in assay [15] was “it was the activity and not the expression of PKC which was inhibited”. Further, in [8], the LIV21 expression profile result was “doublet in the cytoplasm and of a single band in the nuclear fraction”. In addition, in assay [16], the “nuclear translocation of LIV21” value is “effect identical to that of TPA”.
